Measurements taken from patent US11225505B2, “Antimicrobial polymyxin derivative compounds” (MONASH UNIVERSITY, priority 2015, dated 2022).
≈ marks a conversion by molar mass, not a printed value. Where a SMILES comes first, the peptide text is derived from it. Bridges are numbered along the chain shown (N, C = ends). [ ]: non-standard residue; d: D form. The star is where a group is joined. X41 = O=C(c1cc2cc(F)c(F)cc2[nH]1)*; X42 = O=C(c1nc2ccccc2[nH]1)*; X12 = CCc1ccc(C(=O)*)nc1; Dab = NCC[C@H](N)C(=O)O; X10 = O=C(c1cc(Br)cs1)*; X40 = Cc1cncc(C(=O)*)c1; X61 = O=C(c1ccc(Br)s1)*; Abu = CC[C@H](N)C(=O)O; Dap = NC[C@H](N)C(=O)O; X31 = O=C(c1ncccc1Cl)*

Legend:
Assay type in all cases: cell-based
[1] = system: Acinetobacter baumannii FADDI-AB030; experiment: microbe, parasite or virus in culture; conditions: FADDI-AB030
Procedure: MICs of the lipopeptides (trifluoroacetic acid salt, TFA) were determined by broth microdilution in cation-adjusted Mueller-Hinton broth (CAMHB) (Oxoid Australia, Thebarton, SA, Australia) according to the Clinical and Laboratory Standards Institute protocol (Clinical and Laboratory Standards Institute, Performance standards for antimicrobial susceptibility testing; twentyforth informational supplement M100-S24. Wayne, Pa., 2014). Polymyxin B sulphate was employed as the control. […] The following isolates were examined: Pseudomonas aeruginosa ATCC 27853, Pseudomonas aeruginosa FADDI-PA022*, Pseudomonas aeruginosa FADDI-PA01*, Pseudomonas aeruginosa FADDI-PA038*, Acinetobacter baumannii FADDI-AB034*, Acinetobacter baumannii ATCC 17978, Acinetobacter baumannii FADDI-AB030*, Klebsiella pneumoniae FADDI-KP032, Klebsiella pneumoniae FADDI-KP022*, Klebsiella pneumoniae Kp BM1*, Enterobacter cloacae FADDI-EC006, Enterobacter cloacae FADDI-EC001, and Enterobacter cloacae FADDI-EC003 (* Multi drug-resistant clinical isolates, § New Delhi Metallo-beta-lactamase-1 (NDM-1) producing). The results are illustrated in Tables 4 and 5. […]

[2] = system: Pseudomonas aeruginosa FADDI-PA01; conditions: FADDI-
Procedure: (§1) MICs of the lipopeptides (trifluoroacetic acid salt, TFA) were determined by broth microdilution in cation-adjusted Mueller-Hinton broth (CAMHB) (Oxoid Australia, Thebarton, SA, Australia) according to the Clinical and Laboratory Standards Institute protocol (Clinical and Laboratory Standards Institute, Performance standards for antimicrobial susceptibility testing; twentyforth informational supplement M100-S24. Wayne, Pa., 2014). Polymyxin B sulphate was employed as the control. Antimicrobial activity of Compounds 1-104 against polymyxin-susceptible Gram-negative bacteria was examined. The following isolates were examined: Pseudomonas aeruginosa ATCC 27853, Pseudomonas aeruginosa FADDI-PA022*, Pseudomonas aeruginosa FADDI-PA01*, Pseudomonas aeruginosa FADDI-PA038*, Acinetobacter baumannii FADDI-AB034*, Acinetobacter baumannii ATCC 17978, Acinetobacter baumannii FADDI-AB030*, Klebsiella pneumoniae FADDI-KP032, Klebsiella pneumoniae FADDI-KP022*, Klebsiella pneumoniae Kp BM1*, Enterobacter cloacae FADDI-EC006, Enterobacter cloacae FADDI-EC001, and Enterobacter cloacae FADDI-EC003 (* Multi drug-resistant clinical isolates, § New Delhi Metallo-beta-lactamase-1 (NDM-1) producing). The results are illustrated in Tables 4 and 5.

[3] = system: Klebsiella pneumoniae FADDI-KP022; conditions: FADDI-KP022
Procedure: as §1

[4] = system: Pseudomonas aeruginosa FADDI-PA038; conditions: FADDI-PA038
Procedure: as §1

[5] = system: Klebsiella pneumoniae Kp BM1; conditions: Kp BM1
Procedure: as §1

[6] = system: Pseudomonas aeruginosa ATCC 27853; conditions: ATCC 27853
Procedure: as §1

[7] = system: Enterobacter cloacae FADDI-EC006; conditions: FADDI-EC006
Procedure: as §1

[8] = system: Pseudomonas aeruginosa FADDI-PA022; conditions: FADDI-PA022
Procedure: as §1

[9] = system: Klebsiella pneumoniae FADDI-KP032; conditions: FADDI-KP032
Procedure: as §1

[10] = system: Enterobacter cloacae FADDI-EC001; conditions: FADDI-EC001
Procedure: as §1

[11] = system: Enterobacter cloacae FADDI-EC003; conditions: FADDI-EC003
Procedure: as §1

[12] = system: Acinetobacter baumannii FADDI-AB034; conditions: FADDI-AB034
Procedure: as §1

[13] = system: Acinetobacter baumannii ATCC 17978; conditions: ATCC 17978
Procedure: as §1

SMILES: CC[C@@H]1NC(=O)[C@@H](CC(C)C)NC(=O)[C@H](CCN)NC(=O)[C@@H](NC(=O)[C@H](CN)NC(=O)[C@@H](NC(=O)[C@H](CCN)NC(=O)c2nc3ccccc3[nH]2)[C@@H](C)O)CCNC(=O)[C@H]([C@@H](C)O)NC(=O)[C@H](CCN)NC(=O)[C@H](CCN)NC1=O [Compound 47] (X42-[Dab]T[Dap][Dab][Dab][dL][Abu][Dab][Dab]T; lactam 4-C)
- Minimum inhibitory concentration [1]: 0.25 µg/mL (≈ 0.221 µM)
- Minimum inhibitory concentration [2]: <0.125 µg/mL
- Minimum inhibitory concentration [3]: <0.125 µg/mL
- Minimum inhibitory concentration [4]: 0.5 µg/mL (≈ 0.442 µM)
- Minimum inhibitory concentration [5]: 0.25 µg/mL (≈ 0.221 µM)
- Minimum inhibitory concentration [6]: 0.5 µg/mL (≈ 0.442 µM)
- Minimum inhibitory concentration [7]: 0.5 µg/mL (≈ 0.442 µM)
- Minimum inhibitory concentration [8]: 0.25 µg/mL (≈ 0.221 µM)
- Minimum inhibitory concentration [9]: 0.25 µg/mL (≈ 0.221 µM)
- Minimum inhibitory concentration [10]: <0.125 µg/mL
- Minimum inhibitory concentration [11]: <0.125 µg/mL
- Minimum inhibitory concentration [12]: 1 µg/mL (≈ 0.884 µM)
- Minimum inhibitory concentration [13]: 1 µg/mL (≈ 0.884 µM)

SMILES: CC[C@@H]1NC(=O)[C@@H](CC(C)C)NC(=O)[C@H](CCN)NC(=O)[C@@H](NC(=O)[C@H](CN)NC(=O)[C@@H](NC(=O)[C@H](CCN)NC(=O)c2cncc(C)c2)[C@@H](C)O)CCNC(=O)[C@H]([C@@H](C)O)NC(=O)[C@H](CCN)NC(=O)[C@H](CCN)NC1=O [Compound 30] (X40-[Dab]T[Dap][Dab][Dab][dL][Abu][Dab][Dab]T; lactam 4-C)
- Minimum inhibitory concentration [1]: 4 µg/mL (≈ 3.62 µM)
- Minimum inhibitory concentration [2]: 0.5 µg/mL (≈ 0.452 µM)
- Minimum inhibitory concentration [3]: 0.25 µg/mL (≈ 0.226 µM)
- Minimum inhibitory concentration [4]: 1 µg/mL (≈ 0.904 µM)
- Minimum inhibitory concentration [5]: 1 µg/mL (≈ 0.904 µM)
- Minimum inhibitory concentration [6]: 0.5 µg/mL (≈ 0.452 µM)
- Minimum inhibitory concentration [7]: 2 µg/mL (≈ 1.81 µM)
- Minimum inhibitory concentration [8]: 0.5 µg/mL (≈ 0.452 µM)
- Minimum inhibitory concentration [9]: 2 µg/mL (≈ 1.81 µM)
- Minimum inhibitory concentration [10]: 0.5 µg/mL (≈ 0.452 µM)
- Minimum inhibitory concentration [11]: 0.5 µg/mL (≈ 0.452 µM)
- Minimum inhibitory concentration [12]: 4 µg/mL (≈ 3.62 µM)
- Minimum inhibitory concentration [13]: 8 µg/mL (≈ 7.23 µM)

SMILES: CC[C@@H]1NC(=O)[C@@H](CC(C)C)NC(=O)[C@H](CCN)NC(=O)[C@@H](NC(=O)[C@H](CN)NC(=O)[C@@H](NC(=O)[C@H](CCN)NC(=O)c2ccc(Br)s2)[C@@H](C)O)CCNC(=O)[C@H]([C@@H](C)O)NC(=O)[C@H](CCN)NC(=O)[C@H](CCN)NC1=O [Compound 78] (X61-[Dab]T[Dap][Dab][Dab][dL][Abu][Dab][Dab]T; lactam 4-C)
- Minimum inhibitory concentration [1]: 0.5 µg/mL (≈ 0.425 µM)
- Minimum inhibitory concentration [2]: <0.125 µg/mL
- Minimum inhibitory concentration [3]: 0.25 µg/mL (≈ 0.213 µM)
- Minimum inhibitory concentration [4]: 0.5 µg/mL (≈ 0.425 µM)
- Minimum inhibitory concentration [5]: <0.125 µg/mL
- Minimum inhibitory concentration [6]: 0.25 µg/mL (≈ 0.213 µM)
- Minimum inhibitory concentration [7]: 0.25 µg/mL (≈ 0.213 µM)
- Minimum inhibitory concentration [8]: 0.25 µg/mL (≈ 0.213 µM)
- Minimum inhibitory concentration [9]: 0.5 µg/mL (≈ 0.425 µM)
- Minimum inhibitory concentration [10]: 0.25 µg/mL (≈ 0.213 µM)
- Minimum inhibitory concentration [11]: <0.125 µg/mL
- Minimum inhibitory concentration [12]: 1 µg/mL (≈ 0.85 µM)
- Minimum inhibitory concentration [13]: 0.25 µg/mL (≈ 0.213 µM)

SMILES: CC[C@@H]1NC(=O)[C@@H](CC(C)C)NC(=O)[C@H](CCN)NC(=O)[C@@H](NC(=O)[C@H](CN)NC(=O)[C@@H](NC(=O)[C@H](CCN)NC(=O)c2cc(Br)cs2)[C@@H](C)O)CCNC(=O)[C@H]([C@@H](C)O)NC(=O)[C@H](CCN)NC(=O)[C@H](CCN)NC1=O [Compound 88] (X10-[Dab]T[Dap][Dab][Dab][dL][Abu][Dab][Dab]T; lactam 4-C)
- Minimum inhibitory concentration [1]: 0.5 µg/mL (≈ 0.425 µM)
- Minimum inhibitory concentration [2]: 0.5 µg/mL (≈ 0.425 µM)
- Minimum inhibitory concentration [3]: <0.125 µg/mL
- Minimum inhibitory concentration [4]: 0.5 µg/mL (≈ 0.425 µM)
- Minimum inhibitory concentration [5]: 0.25 µg/mL (≈ 0.213 µM)
- Minimum inhibitory concentration [6]: 0.5 µg/mL (≈ 0.425 µM)
- Minimum inhibitory concentration [7]: 0.5 µg/mL (≈ 0.425 µM)
- Minimum inhibitory concentration [8]: 0.5 µg/mL (≈ 0.425 µM)
- Minimum inhibitory concentration [9]: 0.5 µg/mL (≈ 0.425 µM)
- Minimum inhibitory concentration [10]: <0.125 µg/mL
- Minimum inhibitory concentration [11]: 0.5 µg/mL (≈ 0.425 µM)
- Minimum inhibitory concentration [12]: 0.5 µg/mL (≈ 0.425 µM)
- Minimum inhibitory concentration [13]: 0.5 µg/mL (≈ 0.425 µM)

SMILES: CC[C@@H]1NC(=O)[C@@H](CC(C)C)NC(=O)[C@H](CCN)NC(=O)[C@@H](NC(=O)[C@H](CN)NC(=O)[C@@H](NC(=O)[C@H](CCN)NC(=O)c2cc3cc(F)c(F)cc3[nH]2)[C@@H](C)O)CCNC(=O)[C@H]([C@@H](C)O)NC(=O)[C@H](CCN)NC(=O)[C@H](CCN)NC1=O [Compound 60] (X41-[Dab]T[Dap][Dab][Dab][dL][Abu][Dab][Dab]T; lactam 4-C)
- Minimum inhibitory concentration [1]: 0.5 µg/mL (≈ 0.429 µM)
- Minimum inhibitory concentration [2]: 0.5 µg/mL (≈ 0.429 µM)
- Minimum inhibitory concentration [3]: 0.5 µg/mL (≈ 0.429 µM)
- Minimum inhibitory concentration [4]: 1 µg/mL (≈ 0.857 µM)
- Minimum inhibitory concentration [5]: 0.5 µg/mL (≈ 0.429 µM)
- Minimum inhibitory concentration [6]: 0.5 µg/mL (≈ 0.429 µM)
- Minimum inhibitory concentration [7]: 1 µg/mL (≈ 0.857 µM)
- Minimum inhibitory concentration [8]: 0.5 µg/mL (≈ 0.429 µM)
- Minimum inhibitory concentration [9]: 0.5 µg/mL (≈ 0.429 µM)
- Minimum inhibitory concentration [10]: 0.25 µg/mL (≈ 0.214 µM)
- Minimum inhibitory concentration [11]: 0.25 µg/mL (≈ 0.214 µM)
- Minimum inhibitory concentration [12]: 0.5 µg/mL (≈ 0.429 µM)
- Minimum inhibitory concentration [13]: 1 µg/mL (≈ 0.857 µM)

SMILES: CC[C@@H]1NC(=O)[C@@H](CC(C)C)NC(=O)[C@H](CCN)NC(=O)[C@@H](NC(=O)[C@H](CN)NC(=O)[C@@H](NC(=O)[C@H](CCN)NC(=O)c2ncccc2Cl)[C@@H](C)O)CCNC(=O)[C@H]([C@@H](C)O)NC(=O)[C@H](CCN)NC(=O)[C@H](CCN)NC1=O [Compound 36] (X31-[Dab]T[Dap][Dab][Dab][dL][Abu][Dab][Dab]T; lactam 4-C)
- Minimum inhibitory concentration [1]: 4 µg/mL (≈ 3.55 µM)
- Minimum inhibitory concentration [2]: 0.5 µg/mL (≈ 0.444 µM)
- Minimum inhibitory concentration [3]: <0.125 µg/mL
- Minimum inhibitory concentration [4]: 1 µg/mL (≈ 0.888 µM)
- Minimum inhibitory concentration [5]: 2 µg/mL (≈ 1.78 µM)
- Minimum inhibitory concentration [6]: 0.5 µg/mL (≈ 0.444 µM)
- Minimum inhibitory concentration [7]: 2 µg/mL (≈ 1.78 µM)
- Minimum inhibitory concentration [8]: 0.5 µg/mL (≈ 0.444 µM)
- Minimum inhibitory concentration [9]: 1 µg/mL (≈ 0.888 µM)
- Minimum inhibitory concentration [10]: 0.25 µg/mL (≈ 0.222 µM)
- Minimum inhibitory concentration [11]: 0.5 µg/mL (≈ 0.444 µM)
- Minimum inhibitory concentration [12]: 4 µg/mL (≈ 3.55 µM)
- Minimum inhibitory concentration [13]: 8 µg/mL (≈ 7.1 µM)

SMILES: CCc1ccc(C(=O)N[C@@H](CCN)C(=O)N[C@H](C(=O)N[C@@H](CN)C(=O)N[C@H]2CCNC(=O)[C@H]([C@@H](C)O)NC(=O)[C@H](CCN)NC(=O)[C@H](CCN)NC(=O)[C@H](CC)NC(=O)[C@@H](CC(C)C)NC(=O)[C@H](CCN)NC2=O)[C@@H](C)O)nc1 [Compound 42] (X12-[Dab]T[Dap][Dab][Dab][dL][Abu][Dab][Dab]T; lactam 4-C)
- Minimum inhibitory concentration [1]: <0.125 µg/mL
- Minimum inhibitory concentration [2]: <0.125 µg/mL
- Minimum inhibitory concentration [3]: <0.125 µg/mL
- Minimum inhibitory concentration [4]: 0.25 µg/mL (≈ 0.223 µM)
- Minimum inhibitory concentration [5]: 0.25 µg/mL (≈ 0.223 µM)
- Minimum inhibitory concentration [6]: <0.125 µg/mL
- Minimum inhibitory concentration [7]: <0.125 µg/mL
- Minimum inhibitory concentration [8]: <0.125 µg/mL
- Minimum inhibitory concentration [9]: <0.125 µg/mL
- Minimum inhibitory concentration [10]: <0.125 µg/mL
- Minimum inhibitory concentration [11]: <0.125 µg/mL
- Minimum inhibitory concentration [12]: 0.5 µg/mL (≈ 0.446 µM)
- Minimum inhibitory concentration [13]: 1 µg/mL (≈ 0.893 µM)
